# Target: T1, Adrenergic receptor alpha-1 (Rattus norvegicus, UniProt P15823+P23944+P43140)
# T1 sequence (P15823 whole entry): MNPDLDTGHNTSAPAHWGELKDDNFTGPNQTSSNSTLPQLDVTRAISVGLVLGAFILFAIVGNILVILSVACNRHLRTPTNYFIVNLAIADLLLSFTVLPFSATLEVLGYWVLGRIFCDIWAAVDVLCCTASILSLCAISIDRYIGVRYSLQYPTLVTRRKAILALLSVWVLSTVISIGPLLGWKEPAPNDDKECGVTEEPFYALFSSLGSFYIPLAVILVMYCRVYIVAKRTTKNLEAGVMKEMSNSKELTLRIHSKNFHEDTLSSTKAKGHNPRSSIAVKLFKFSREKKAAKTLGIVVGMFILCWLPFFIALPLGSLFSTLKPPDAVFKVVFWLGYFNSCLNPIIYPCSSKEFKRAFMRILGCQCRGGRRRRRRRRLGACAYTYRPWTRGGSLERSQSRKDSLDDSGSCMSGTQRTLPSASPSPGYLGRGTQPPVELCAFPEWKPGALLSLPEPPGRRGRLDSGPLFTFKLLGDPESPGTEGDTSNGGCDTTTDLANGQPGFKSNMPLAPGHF
# T1 sequence (P23944 whole entry): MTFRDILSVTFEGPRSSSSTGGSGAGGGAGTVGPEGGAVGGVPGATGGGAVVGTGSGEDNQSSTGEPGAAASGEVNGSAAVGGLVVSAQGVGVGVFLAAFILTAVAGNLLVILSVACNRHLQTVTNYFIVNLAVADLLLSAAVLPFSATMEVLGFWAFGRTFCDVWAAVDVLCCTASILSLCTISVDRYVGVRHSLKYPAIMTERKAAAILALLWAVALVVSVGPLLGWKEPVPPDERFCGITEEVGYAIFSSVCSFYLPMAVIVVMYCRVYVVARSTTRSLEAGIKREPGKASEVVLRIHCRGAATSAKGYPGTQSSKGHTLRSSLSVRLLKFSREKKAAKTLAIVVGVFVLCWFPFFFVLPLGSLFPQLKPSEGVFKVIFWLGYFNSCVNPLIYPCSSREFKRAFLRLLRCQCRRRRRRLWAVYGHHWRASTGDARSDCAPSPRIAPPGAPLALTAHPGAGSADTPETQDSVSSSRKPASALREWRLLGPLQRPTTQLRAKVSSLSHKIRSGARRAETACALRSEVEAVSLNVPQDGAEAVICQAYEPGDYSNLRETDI
# T1 sequence (P43140 whole entry): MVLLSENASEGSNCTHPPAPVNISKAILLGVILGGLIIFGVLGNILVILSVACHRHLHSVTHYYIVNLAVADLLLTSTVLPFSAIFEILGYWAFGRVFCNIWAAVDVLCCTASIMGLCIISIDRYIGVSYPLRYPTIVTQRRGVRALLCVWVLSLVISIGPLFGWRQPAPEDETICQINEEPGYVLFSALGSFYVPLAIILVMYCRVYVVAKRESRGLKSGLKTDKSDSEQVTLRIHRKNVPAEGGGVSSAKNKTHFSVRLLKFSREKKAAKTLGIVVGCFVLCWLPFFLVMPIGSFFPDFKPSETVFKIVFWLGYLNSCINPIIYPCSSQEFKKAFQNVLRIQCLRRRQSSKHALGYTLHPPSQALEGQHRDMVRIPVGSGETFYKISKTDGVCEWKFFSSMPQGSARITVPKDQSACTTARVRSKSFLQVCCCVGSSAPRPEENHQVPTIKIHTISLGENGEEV
# Assay: Compound was evaluated for inhibition of [3H]prazosin binding to Alpha-1 adrenergic receptor in rat forebrain homogenate.
# Type: tissue-based, Brain
row,SMILES,Ki [µM]
1,CN[C@H](C)[C@@H](O)c1ccc(O)c(O)c1,11
2,CN[C@@H](C)[C@H](O)c1ccc(O)c(O)c1,146
3,C[C@H](N)[C@H](O)c1ccc(O)c(O)c1 (stereo in doubt; 1) [LEVONORDEFRIN],7.3
4,C[C@H](N)[C@H](O)c1ccc(O)c(O)c1 (stereo in doubt; form 1) [LEVONORDEFRIN],3.6
5,C[C@H](N)[C@H](O)c1ccc(O)c(O)c1 (stereo in doubt; form 2) [LEVONORDEFRIN],2315
6,CNC(C)C(O)c1ccc(O)c(O)c1 (stereo unspecified) [DIOXIFEDRINE],28

# Reference: ChEMBL document CHEMBL1121888, “(alpha S)-erythro-alpha-methylepinephrine: preparation and stereoselective binding to adrenergic receptors in rat forebrain” (J Med Chem, 1981)
